# Test results taken from patent US10098909B2 (UNIVERSITY OF SOUTH FLORIDA, priority 2016, dated 2018).
# Legend:
# GSK3β [1] = assay: GSK3β phosphorylation in Fmr1 KO mouse embryonic fibroblasts (WB); format: cell-based; details: 60 min
# Procedure: FIGS. 5A-5B. […] Many neurodegenerative disorders, including FXS, have been associated with enhanced GSK activity (14-16). Fmr1 KO mouse embryonic fibroblasts (Fmr1 KO MEF) have elevated levels of stimulatory GSK3β ([…]) phosphorylation compared to wild-type MEF (both cell lines kindly provided by Dr. David Nelson, Baylor College of Medicine). […] Cell lysates were then prepared and subjected to WB analysis using specific phospho-GSK3β (pGSK3β)^Tyr216, pGSK3β^Ser9 and total GSK antibodies.
# GSK3α = GSK3α Tyr279 phosphorylation in brain homogenates of Fmr1 KO mice (WB); format: in vivo, mouse; details: 28 mg/kg/day i.p., 5 days
# Procedure: (§1) (6A) Mouse brain homogenates were then prepared from cerebral cortex and hippocampus and analyzed by WB with specific pGSK3α^Tyr279, pGSK3β^Tyr216 and total GSK antibodies.
# GSK3β [2] = assay: GSK3β Tyr216 phosphorylation in brain homogenates of Fmr1 KO mice (WB); format: in vivo, mouse; details: 28 mg/kg/day i.p., 5 days
# Procedure: as §1
# [3] = In vivo plasma and brain lithium pharmacokinetics after oral gavage (AAS); set-up: species or system Sprague-Dawley rats; details: for time of plasma lithium peak: sampled at 2, 24, 48, 72 h; for plasma and brain lithium level profile after oral dosing: summary of FIG. 2, up to 48 h
# Fmr1 KO mice [4] = details: dfmr1 mutant Drosophila and Fmr1 KO mice; cited from earlier work
# [5] = system: Human neural stem cells (H9-Derived); assay: Human neural stem cell differentiation (MAP2, GFAP; immunofluorescence and WB); format: cell-based; details: 10 mM, 14 days
# Procedure: These cells were then permeabilized, washed, incubated with mouse anti-MAP2 monoclonal antibody or rabbit anti-GFAP polyclonal antibody overnight at 4° C., stained with Alexa Fluor® 488 (green) and Alexa Fluor® 594 (red), and visualized by confocal microscopy. DAPI (blue) was used to detect nuclear DNA.
# [6] = system: Wild-type mouse neuroblastoma (N2a) cells; assay: Neuronal cell differentiation in N2a cells (β-tubulin III, phospho-synapsin I; immunofluorescence and WB); format: cell-based; details: 10 mM, 24 h
# Procedure: These cells were then permeabilized with 0.05% Triton X-100 for 5 min, washed, and incubated with mouse anti-β-tubulin III monoclonal antibody ([…]™), and rabbit anti-phospho-synapsin I (Ser^62, Ser^67) polyclonal antibody (EMD Millipore) overnight at 4° C. Alexa Fluor® 488 Goat anti-mouse IgG (green) and Alexa Fluor® 594 Donkey anti-rabbit IgG (red, Life Technologies) were used to detect β-tubulin III and phospho-synapsin I signals respectively. Confocal images were taken by Olympus Fluoview™ FV1000 laser scanning confocal microscope (Tokyo, Japan).
# Fmr1 KO mice [7] = details: cited from earlier work
# [8] = male rats, 4 mEq/kg lithium, oral gavage
molecule,measurement,setting,value
O=C(O)[C@@H]1CCCN1.O=C([O-])c1ccccc1O.[Li+] [LISPRO],stimulatory pGSK3β Tyr216 level,"GSK3β [1]; Fmr1 KO MEF, 40 μM",decreased
same,total GSK3β level,"GSK3β [1]; Fmr1 KO MEF, 10, 20 or 40 μM",unchanged
same,inhibitory pGSK3β Ser9 level,"GSK3β [1]; Fmr1 KO MEF, starting at 10 μM",increased
same,pGSK3α Tyr279 level in cerebral cortex and hippocampus,GSK3α,reduced these levels
same,pGSK3β Tyr216 level in cerebral cortex and hippocampus,GSK3β [2],reduced these levels
same,plasma lithium level at 2 h,"[3]; male rats, 4 mEq/kg lithium, oral gavage, 2 h",elevated
same,plasma lithium level at 48 h,[3]; [8],remained elevated
same,plasma lithium level at 72 h,"[3]; male rats, 4 mEq/kg lithium, oral gavage, 72 h",almost undetectable
same,brain lithium levels at 24 and 48 h,"[3]; male rats, 4 mEq/kg lithium, oral gavage, brain, 24 and 48 h",steady brain levels
same,time of plasma lithium peak,[3]; [8],24 h
same,plasma and brain lithium level profile after oral dosing,[3],nearly steady levels of lithium in plasma and brain for up to 48 h without the initial spike
Cn1sc(=O)n(Cc2ccccc2)c1=O [TDZD-8],"FXS behavioral phenotypes (hyperactivity, social and cognitive impairment)",Fmr1 KO mice [4],reverse these behavioral deficits
[Cl-].[Li+] [LiCl],"GFAP expression (gliogenesis; immunofluorescence and WB, GFAP to β-actin) vs PBS",[5],no significance difference
same,"MAP2 expression (immunofluorescence and WB, MAP2 to β-actin) vs PBS",[5],no significance difference
same,neuronal cell differentiation (β-tubulin III and phospho-synapsin I immunofluorescence and WB) vs PBS,[6],no significant difference
"O=C(O)[C@@H]1CCCN1 [1-proline, L-proline]","GFAP expression (gliogenesis; immunofluorescence and WB, GFAP to β-actin) vs PBS",[5],no significance difference
same,"MAP2 expression (immunofluorescence and WB, MAP2 to β-actin) vs PBS",[5],no significance difference
same,neuronal cell differentiation (β-tubulin III and phospho-synapsin I immunofluorescence and WB) vs PBS,[6],no significant difference
"O=C([O-])[O-].[Li+].[Li+] [Li2CO3, lithium carbonate]","GFAP expression (gliogenesis; immunofluorescence and WB, GFAP to β-actin) vs PBS",[5],no significance difference
same,"MAP2 expression (immunofluorescence and WB, MAP2 to β-actin) vs PBS",[5],no significance difference
same,neuronal cell differentiation (β-tubulin III and phospho-synapsin I immunofluorescence and WB) vs PBS,[6],no significant difference
same,plasma lithium level at 48 h,[3]; [8],nearly undetectable
same,brain lithium level at 24 h,"[3]; male rats, 4 mEq/kg lithium, oral gavage, brain, 24 h",concomitant spike
same,time of plasma lithium peak,[3]; [8],24 h
same,plasma and brain lithium level profile after oral dosing,[3],spike in plasma and brain lithium levels at 24 h with considerably lower or undetectable levels at 48 h
Cn1cc(C2=C(c3ccc(Cl)cc3Cl)C(=O)NC2=O)c2ccccc21 [SB-216763],"FXS behavioral phenotypes (hyperactivity, social and cognitive impairment)",Fmr1 KO mice [4],reverse these behavioral deficits
"BDNF: brain derived neurotrophic factor, a potent modulator of learning and memory, synaptic plasticity and neurogenesis (protein, UniProt P23560 19-247, looked up) Neurotrophic factor BDNF …: APMKEANIRGQGGLAYPGVRTHGTLESVNGPKAGSRGLTSLADTFEHVIEELLDEDQKVRPNEENNKDADLYTSRVMLSSQVPLEPPLLFLLEEYKNYLDAANMSMRVRRHSDPARRGELSVCDSISEWVTAADKKTAVDMSGGTVTVLEKVPVSKGQLKQYFYETKCNPMGYTKEGCRGIDKRHWNSQCRTTQSYVRALTMDSKKRIGWRFIRIDTSCVCTLTIKRGR",impairment in hippocampal long term potentiation,Fmr1 KO mice [7],fully restored
